Entries after “also recorded” stand apart in the source; their conditions may differ. Read-outs that look alike come from different tables or passages of the source.
Assays:
Stability to heat = type: physicochemical
Experimental: which can be treated with about a 0.4 molar equivalent of bromine trifluoride at -5° C to give the ether V (See Examples 8 and 9).

male CF-1 mice [1] = assay: Lethality in mice (median lethal concentration LC50); type: in vivo, mouse (male CF-1); conditions: for MOUSE LC50: inhalation, 5 min
Experimental: (§1) If anesthesia occurred, the median anesthetic concentration (AC50) was established. Another thirty mice were treated similarly to establish the median lethal concentration (LC50). The concentrations were calculated from the volume used and density of the test compound and the volume of air (6.3 l) in the test jar using the ideal gas law. The results for the convulsant ethers are given in Table 1; Tables 2 and 3 contain the results for related nonconvulsant ethers, most of which are good anesthetic agents.

male CF-1 mice [2] = assay: Convulsions in mice, 5 min inhalation exposure to test compound in air; type: in vivo, mouse (male CF-1); conditions: for ADDITIONAL REMARKS: type of convulsions and other effects: Table 1; for MOUSE CONVULSANT CONC., VOL. %: inhalation, 5 min
Experimental: as §1

dogs = assay: Convulsions / other effects in dogs; type: in vivo, dog
male CF-1 mice [3] = assay: Anesthesia in mice (median anesthetic concentration AC50); type: in vivo, mouse (male CF-1); conditions: inhalation, 5 min
Experimental: as §1

male CF-1 mice [4] = conditions: footnote 5 (Krantz et al.); cited from earlier work
male CF-1 mice [5] = conditions: footnote 5 (Krantz et al.); cited from earlier work; remark: listed apart in the source
[6] = footnote 3 (Aldrich and Sheppard); cited from earlier work
[7] = test system: flurothyl induced convulsions; conditions: footnote 5 (Krantz et al.); cited from earlier work

## FC(F)OCC(F)(F)C(F)F [I, Difluoromethyl 2,2,3,3-tetrafluoropropyl ether]
Stability to heat
  stability to heat compared with V: more stable than V to heat
Male CF-1 mice [1]
  MOUSE LC50: 3.2 VOL. %
Male CF-1 mice [2]
  ADDITIONAL REMARKS: type of convulsions and other effects: CLONIC CONVULSIONS
  MOUSE CONVULSANT CONC., VOL. %: 1.0 VOL. %

## FC(F)OCC(F)(F)C(F)(F)F [II, Difluoromethyl 2,2,3,3,3-pentafluoropropyl ether]
Stability to heat
  stability to heat compared with V: more stable than V to heat
Male CF-1 mice [1]
  MOUSE LC50: > 4.2 VOL. %
Male CF-1 mice [2]
  ADDITIONAL REMARKS: type of convulsions and other effects: CLONIC AND TONIC CONVULSIONS; also recorded: CATALEPSY
  MOUSE CONVULSANT CONC., VOL. %: 1.4 VOL. %

## FC(F)OC(F)(F)C(F)C(F)(F)F (stereo not shown) [III, Difluoromethyl 1,1,2,3,3,3-hexafluoropropyl ether]
Stability to heat
  stability to heat compared with V: more stable than V to heat
Male CF-1 mice [1]
  MOUSE LC50: > 12 VOL. %
Male CF-1 mice [2]
  MOUSE CONVULSANT CONC., VOL. %: 2.0 VOL. %

## FC(F)OC(F)(C(F)F)C(F)F [IV, Difluromethyl 1,1,2,3,3-pentafluoro-2-propyl ether]
Stability to heat
  stability to heat compared with V: more stable than V to heat
Male CF-1 mice [1]
  MOUSE LC50: 5.3 VOL. %
Male CF-1 mice [2]
  ADDITIONAL REMARKS: type of convulsions and other effects: C[…] SEDATION
  MOUSE CONVULSANT CONC., VOL. %: 1.2 VOL. %
dogs
  ADDITIONAL REMARKS: convulsions in dogs: OPI[…]. IN DOGS

## FC(F)OC(F)C(F)(F)C(F)(F)F (stereo not shown) [IX]
Male CF-1 mice [3]
  MOUSE AC50 (median anesthetic concentration): 4.3 VOL. %
Male CF-1 mice [1]
  MOUSE LC50: > 9.9 VOL. %

## FCOCC(F)(F)C(F)(F)F [V, Fluoromethyl 2,2,3,3,3-pentafluoropropyl ether]
Stability to heat; e.g., soda lime
  stability to heat in the presence of an alkaline material: stable to 70 °C
Stability to heat; upon distillation at 760 torr
  stability to heat: unstable to heat and decomposed with the formation of hydrogen fluoride
Male CF-1 mice [1]
  MOUSE LC50: > 3.0 VOL. %
Male CF-1 mice [2]
  ADDITIONAL REMARKS: type of convulsions and other effects: METRAZOLE-LIKE CONVULSIONS
  MOUSE CONVULSANT CONC., VOL. %: 1.5 VOL. %

## FC(F)(F)COCC(F)(F)F [VII, fluorothyl]
Male CF-1 mice [4]
  MOUSE LC50: < 0.50 VOL. %
Male CF-1 mice [2]
  ADDITIONAL REMARKS: type of convulsions and other effects: CLONIC AND TONIC CONVULSIONS
Male CF-1 mice [2]; clonic and tonic convulsions
  ADDITIONAL REMARKS: time of convulsions: 30 s
Male CF-1 mice [5]
  MOUSE CONVULSANT CONC., VOL. %: ≤ 0.25 VOL. %

## FC(F)C(F)(F)COC(F)(F)F [VI]
Male CF-1 mice [1]
  MOUSE LC50: ≤ 0.5 VOL. %
[6]
  ADDITIONAL REMARKS: convulsions and death: VIOLENT C[…] DEATH
  ADDITIONAL REMARKS: time of convulsions and death: 30 to 120 s
Male CF-1 mice [2]
  MOUSE CONVULSANT CONC., VOL. %: ≤ 0.5 VOL. %

## FCOC(F)(F)C(F)C(F)(F)F (stereo not shown) [XIII]
Male CF-1 mice [3]
  MOUSE AC50 (median anesthetic concentration): 2.1 VOL. %
Male CF-1 mice [1]
  MOUSE LC50: 6.4 VOL. %

## FC(F)OC(C(F)F)C(F)F [XII]
Male CF-1 mice [3]
  MOUSE AC50 (median anesthetic concentration): 0.64 VOL. %
Male CF-1 mice [1]
  MOUSE LC50: 3.8 VOL. %

## FCOC(F)(C(F)F)C(F)(F)F (stereo not shown) [XIV]
Male CF-1 mice [3]
  MOUSE AC50 (median anesthetic concentration): 2.5 VOL. %
Male CF-1 mice [1]
  MOUSE LC50: 9.0 VOL. %
dogs
  ADDITIONAL REMARKS: convulsions in dogs: NON[…] DOGS

## COCC(F)(F)C(F)(F)F [XIX, methyl 2,2,3,3,3-pentafluoropropyl ether]
Male CF-1 mice [3]
  MOUSE AC50 (median anesthetic concentration): 11 VOL. %
Male CF-1 mice [1]
  MOUSE LC50: 16 VOL. %

## FC(F)OC(C(F)F)C(F)(F)F (stereo not shown) [XI]
Male CF-1 mice [3]
  MOUSE AC50 (median anesthetic concentration): 0.84 VOL. %
Male CF-1 mice [1]
  MOUSE LC50: 4.9 VOL. %

## COC(F)(F)C(F)C(F)(F)F (stereo not shown) [XVIII, methyl 1,1,2,3,3,3-hexafluoropropyl ether]
Male CF-1 mice [3]
  MOUSE AC50 (median anesthetic concentration): 3.9 VOL. %
Male CF-1 mice [1]
  MOUSE LC50: > 8.0 VOL. %

## COC(F)(F)C(F)(F)C(F)(F)F [XVII]
Male CF-1 mice [1]
  MOUSE LC50: 50 VOL. %
Male CF-1 mice [1]; mouse
  ADDITIONAL REMARKS: cause of death: DEATH DUE TO ANOXIA

## FCOC(C(F)F)C(F)(F)F (stereo not shown) [XVI]
Male CF-1 mice [3]
  MOUSE AC50 (median anesthetic concentration): 0.84 VOL. %
Male CF-1 mice [1]
  MOUSE LC50: 5.1 VOL. %

## FCOC(C(F)(F)F)C(F)(F)F [XV]
Male CF-1 mice [3]
  MOUSE AC50 (median anesthetic concentration): 1.4 VOL. %
Male CF-1 mice [1]
  MOUSE LC50: 8.5 VOL. %
dogs
  ADDITIONAL REMARKS: convulsions in dogs: NON[…] DOGS

## COC(C(F)F)C(F)F [XXIII]
Male CF-1 mice [3]
  MOUSE AC50 (median anesthetic concentration): 1.4 VOL. %
Male CF-1 mice [1]
  MOUSE LC50: > 7.8 VOL. %

## COC(C(F)F)C(F)(F)F (stereo not shown) [XXII]
Male CF-1 mice [3]
  MOUSE AC50 (median anesthetic concentration): 1.5 VOL. %
Male CF-1 mice [1]
  MOUSE LC50: 6.9 VOL. %

## COC(C(F)(F)F)C(F)(F)F [XXI]
[7]
  antagonist to flurothyl (induced convulsions): ANTAGONIST
Male CF-1 mice [3]
  MOUSE AC50 (median anesthetic concentration): 2.2 VOL. %
Male CF-1 mice [1]
  MOUSE LC50: 9.0 VOL. %
dogs
  ADDITIONAL REMARKS: convulsions in dogs: NON[…] DOGS

## COCC(F)(F)C(F)F [XX]
Male CF-1 mice [3]
  MOUSE AC50 (median anesthetic concentration): 2.5 VOL. %
Male CF-1 mice [1]
  MOUSE LC50: 7.0 VOL. %

## FC(F)OC(C(F)(F)F)C(F)(F)F [X]
Male CF-1 mice [3]
  MOUSE AC50 (median anesthetic concentration): 2.5 VOL. %
Male CF-1 mice [1]
  MOUSE LC50: 12 VOL. %
dogs
  ADDITIONAL REMARKS: convulsions in dogs: NON[…] DOGS

Reference: patent publication US3976788A (priority 1974, dated 1976)
